Measurements taken from patent US20030211469A1, “Inhibiting hepatitis c virus processing and replication” (priority 2003, published 2003).
Where two headings read alike, the source gives them in different places.

How the values were obtained:
HCV NS2/3 (810-1615BK) [1] = target: T1, HCV NS2/3 (810-1615BK) (Hepatitis C virus genotype 1b, UniProt P26663); assay type: biochemical, Hepatitis C virus (BK strain); settings: for NS2/3 Processed (% of Control): 5 mM final concentration of nucleoside analog; for inhibition at the maximum concentration tested: 5 mM; for inhibition at the maximum concentration tested / IC50: residual ATP approximately 1 mM; for IC50: titration, read-out: IC50, inhibition of NS2/3 processing
T1 construct: HCV residues 810-1615 of the BK strain; made in house; host or cells: in vitro translation in rabbit reticulocyte lysate from plasmid pCITE 810-1615BK
Method: (§1) HCV residues 810-1615 of the BK strain, which includes all of NS2 and most of NS3 (termed 810-1615BK), was produced from the plasmid pCITE 810-1615BK (a gift from Dr. Nicola La Monica) and has been described previously by Pieroni, et al., (1997) J. Virol. 71, 6373. Following plasmid linearization with BLP1, RNA was transcribed with T7 RNA polymerase and purified. Protein translation was in rabbit reticulocyte lysate, 30° C. for 40 minutes using [^35S]-methionine as a label. Translation was then blocked by the addition of cycloheximide (250 μM final) and the samples were immediately frozen on dry ice.
(§2) Prior to processing experiments, an aliquot of translated NS2/3 was thawed on ice. Processing of 810-1615BK was initiated by addition to room temperature solutions containing Triton X-100 at 1%, as described by Pieroni, et al., (1997) J. Virol. 71, 6373. The distribution of [^35S]-labeled proteins on dried gels was determined with a Phosphorimager (Molecular Dynamics). Product bands were quantified and expressed as a proportion of total signal in the gel lane so that variations in gel lane loading were normalized.

[2] = target: T2, NS2/3 fusion protein Ubi-849-1207J-BLA (UniProt P26662+P62593, S1165A); assay: Processing of NS2/3 fusion protein Ubi-849-1207J-BLA in reticulocyte lysate; assay type: biochemical, Hepatitis C virus (J strain)
T2 construct: NS2/3 residues 849-1207 (J strain); ubiquitin (N, cleaved yes); made in house; host or cells: in vitro translation in rabbit reticulocyte lysate from plasmid pM3A
Source text: The plasmid pM3A, derived from pCDNA (Invitrogen), encodes a fusion protein termed Ubi-849-1207J-BLA that contains ubiquitin at its N-terminus, followed by NS2/3 residues 849-1207 (J strain) linked to bacterial TEM-1 β-lactamase at the C-terminus. […] RNA synthesis for this construct is driven by the T7 promoter, and RNA was separately prepared for translation as in Example 1. Upon translation in rabbit reticulocyte lysate, the ubiquitin is immediately cleaved from the protein by cellular ubiquitin hydrolases. (Hochstrasser, (1996) Annual Review of Genetics 30, 405.)
The cleavable linkage (SEQ. ID. NO. 1) is present as ubiquitin↓ArgHisGlySerGluPhe-NS2/3. […] Translations were limited to 30 minutes for that reason. Quantification of processing at room temperature was by comparison of samples prepared immediately after addition of cycloheximide with later time samples.

[3] = system: ubiquitin-ubiquitin-ubiquitin-NS2/3-β-lactamase in Jurkat cells; assay: Cell-based NS2/3 cleavage assay, Jurkat cells, β-lactamase/CCF2 readout; design: species or system Hepatitis C virus; settings: for IC50: read-out: IC50, NS2/3 cleavage in cells, 5 hours treatment, 460 nm/530 nm ratio
Method: Inhibitor treatment was for 5 hours, followed by addition of cycloheximide to stop protein synthesis (30 minutes) and subsequent addition of the β-lactamase substrate, CCF2. After 2 hours, β-lactamase activity was quantified by fluorescence readings (460 nm/530 nm ratio). Lower 460 nm/530 nm ratios indicate inhibition of NS2/3 cleavage.
Through the use of a neomycin-selectable transfection vector, stable expression of NS2/3 in Jurkat cells was obtained. The plasmid pUbBla3X-NS2/3-3A conferring neomycin (G418) resistance, expresses a fusion of the NS2/3 protein with 3 ubiquitin domains appended to the N-terminus and β-lactamase at the C-terminus. The complete uncleaved protein has an in vivo half-life estimated to be 5-10 minutes.
The plasmid pUbBla3X NS2/3-3A was transfected into Jurlcat cells. The CMV promoter-driven ORF of the plasmid encodes a 91 kDa protein, ubiquitin-ubiquitin-ubiquitin-NS2/3-β-lactamase, with the C-termini of the 3 ubiquitin domains rendered non-cleaveable to ubiquitin-C-terminal hydrolases (ubiquitin C-terminal sequence ArgLeuArgGlyVal, SEQ. ID. NO. 2). The NS2/3 region includes HCV residues 849-1207. The β-lactamase domain is TEM-1 from E. coli. Expression of the P-lactamase moiety is readily detected with the fluorogenic, cell-penneant substrate, CCF2. (Zlokarnik, et al., (1998) Scienice 279, 84.) Transfectants were sorted by FACS using treatment with CCF2 to indicate β-lactamase expression (Zlokarnik, et al., (1998) Science 279, 84), and individual clones were grown under G418 selection. The full fusion protein expressed is highly unstable to ubiquitin-directed proteosomal degradation due to its ubiquitin N-terminal tag, while the C-terminal product of NS2/3 cleavage, NS3-β-lactamase, is stable for hours. Thus, build-up in the cells of O-lactamase activity, as indicated by CCF2 hydrolysis (high 460 nm1530 nm ratio) is indicative of successful NS2/3 cleavage, and suppression of P-lactamase activity indicates NS2/3 inhibition.
(See, Grakoui, et al., (1993) P.N.A.S. USA 90, 10583, Selby, et al., (1993) J. Gen. Virol. 74, 1103, fijikata, et al., (1993) J. Virol. 67, 4665, Santolini, et al., (1995) J. Viol. 69, 7461, D'Souza, et al., (1994) J. Gen. Virol. 75, 3469, and Pieroni, et al., (1997) J. Virol. 71, 6373.) NS2/3 self-cleavage separates the destabilizing ubiquitin degradation signal at the N-terminus from the NS3-O-lactamase C-terminal product, thus stabilizing the β-lactamase activity within the cell.

HCV NS2/3 (810-1615BK) [4] = assay type: biochemical, Hepatitis C virus (BK strain); settings: for NS2/3 Processed (% of Control): present during synthesis and processing, 30 minutes
Method: as §1, §2
NS2/3 processing reactions were performed with 810-1615BK. […] (Darke, et al., (1999) J. Biol. Chem. 274, 34511.) Inhibitors were dissolved in DMSO and protected from light. Dilutions were in DMSO, such that the final concentration of DMSO was 2% for in vitro experiments and 1% for cell-based assays. […] (Hu, et al., (1996) P.N.A.S. USA 93, 1060; Thulasiraman, et al., (1996) Biochemistry 35, 13443 (1996), Schneider, et al., (1996) P.N.A.S. USA 93, 14536.)
to the data, where a is the minimal level of fractional activity (tending to 0), a+b is the maximal level (tending to 1), x is the concentration of inhibitor, c is the IC50 and d is a slope coefficient. […] Values given are the average of two determinations.

[5] = titration, 810-1615BK, average of two determinations

Compound | NS2/3 Processed (% of Control) (HCV NS2/3 (810-1615BK) [1]) | inhibition at the maximum concentration tested (HCV NS2/3 (810-1615BK) [1]) [%] | IC50 (HCV NS2/3 (810-1615BK) [1]) [µM] | inhibition at the highest concentrations tested [3] | IC50 [3] [µM] | further results
Nc1ncnc2c1ncn2[C@@H]1O[C@H](COP(=O)(O)OP(=O)(O)NP(=O)(O)O)[C@@H](O)[C@H]1O [AMP-PNP] | 40 % of Control | 60 | 4000 | – | – | –
Nc1ncnc2c1ncn2[C@@H]1O[C@H](COP(=O)(O)OP(=O)(O)OP(O)(O)=S)[C@@H](O)[C@H]1O [ATPγS] | 24 % of Control | 77 | 2000 | – | – | Inhibition of NS2/3 processing, J-strain fusion protein [2]: Inhibition by ATPγS was also observed
COC1=C2C[C@@H](C)C[C@H](OC)[C@H](O)[C@@H](C)/C=C(\C)[C@H](OC(N)=O)[C@@H](OC)/C=C\C=C(/C)C(=O)NC(=CC1=O)C2=O [Geldanamycin] | – | – | – | nearly complete | 0.04 | –
CO[C@H]1[C@@H](OC)C[C@H](C)[C@@H](OC)C2=CC(=O)C=C(NC(=O)/C(C)=C/C=C\[C@H](OC)[C@@H](OC(N)=O)/C(C)=C/[C@@H]1C)C2=O [Herbimycin A, herbimycin A] | – | – | – | – | – | NS2/3 Processed (% of Control) (HCV NS2/3 (810-1615BK) [4]; 1 μM): 38 % of Control; NS2/3 Processed (% of Control) (HCV NS2/3 (810-1615BK) [4]; 10 μM): 22 % of Control
C[C@@H]1C[C@H]2O[C@@H]2/C=C\C=C\C(=O)Cc2c(Cl)c(O)cc(O)c2C(=O)O1 [Radicicol] | – | – | – | nearly complete | 0.013 | EC50 (HCV NS2/3 (810-1615BK) [4]; [5]): 0.22 ± 0.12 µM; Maximum Inhibition (%) (HCV NS2/3 (810-1615BK) [4]; [5]): 51%
